Reference: ChEMBL document CHEMBL3785005, “Novel triazole hybrids of myrrhanone C, a natural polypodane triterpene: Synthesis, cytotoxic activity and cell based studies” (Eur J Med Chem, 2016)

system: HeLa; assay: Cytotoxicity against human HeLa cells assessed as cell viability after 48 hrs by MTT assay; assay type: functional, cell-based; conditions: not given

| SMILES | IC50 [µM] |
| --- | --- |
| CC(C)=CCC/C(C)=C/CC/C(C)=C/CC[C@@H]1[C@@]2(C)CC/C(=N\OCc3cn(-c4ccc(F)cc4)nn3)C(C)(C)[C@@H]2CC[C@@]1(C)O | 21.4 |
| CC(C)=CCC/C(C)=C/CC/C(C)=C/CC[C@@H]1[C@@]2(C)C/C(=C\c3ccc(OCc4cn(-c5ccc(F)c(Cl)c5)nn4)cc3)C(=O)C(C)(C)[C@@H]2CC[C@@]1(C)O | 43 |
| CC(C)=CCC/C(C)=C/CC/C(C)=C/CC[C@@H]1[C@@]2(C)CC/C(=N\OCc3cn(-c4cccc(C(F)(F)F)c4)nn3)C(C)(C)[C@@H]2CC[C@@]1(C)O | 12.5 |
| CC(C)=CCC/C(C)=C/CC/C(C)=C/CC[C@@H]1[C@@]2(C)C/C(=C\c3ccc(OCc4cn(-c5cccc(O)c5)nn4)cc3)C(=O)C(C)(C)[C@@H]2CC[C@@]1(C)O | 158 |
| CC(C)=CCC/C(C)=C/CC/C(C)=C/CC[C@@H]1[C@@]2(C)C/C(=C\c3ccc(OCc4cn(-c5ccc(Cl)cc5)nn4)cc3)C(=O)C(C)(C)[C@@H]2CC[C@@]1(C)O | 50.7 |
| CC(C)=CCC/C(C)=C/CC/C(C)=C/CC[C@@H]1[C@@]2(C)C/C(=C\c3ccc(OCc4cn(-c5cccc([N+](=O)[O-])c5)nn4)cc3)C(=O)C(C)(C)[C@@H]2CC[C@@]1(C)O | 32.9 |
| COc1cccc(-n2cc(COc3ccc(/C=C4\C[C@]5(C)[C@@H](CC/C=C(\C)CC/C=C(\C)CCC=C(C)C)[C@](C)(O)CC[C@H]5C(C)(C)C4=O)cc3)nn2)c1 | 16.2 |

system: MCF7; assay: Cytotoxicity against human MCF7 cells assessed as cell viability after 48 hrs by MTT assay; assay type: functional, cell-based; conditions: MCF7, 48 h

| SMILES | IC50 [µM] |
| --- | --- |
| CC(C)=CCC/C(C)=C/CC/C(C)=C/CC[C@@H]1[C@@]2(C)CC/C(=N\OCc3cn(-c4ccc(F)cc4)nn3)C(C)(C)[C@@H]2CC[C@@]1(C)O | 25.9 |
| CC(C)=CCC/C(C)=C/CC/C(C)=C/CC[C@@H]1[C@@]2(C)C/C(=C\c3ccc(OCc4cn(-c5ccc(F)c(Cl)c5)nn4)cc3)C(=O)C(C)(C)[C@@H]2CC[C@@]1(C)O | 46.5 |
| CC(C)=CCC/C(C)=C/CC/C(C)=C/CC[C@@H]1[C@@]2(C)CC/C(=N\OCc3cn(-c4cccc(C(F)(F)F)c4)nn3)C(C)(C)[C@@H]2CC[C@@]1(C)O | 21.4 |
| CC(C)=CCC/C(C)=C/CC/C(C)=C/CC[C@@H]1[C@@]2(C)C/C(=C\c3ccc(OCc4cn(-c5cccc(O)c5)nn4)cc3)C(=O)C(C)(C)[C@@H]2CC[C@@]1(C)O | 45.5 |
| CC(C)=CCC/C(C)=C/CC/C(C)=C/CC[C@@H]1[C@@]2(C)C/C(=C\c3ccc(OCc4cn(-c5ccc(Cl)cc5)nn4)cc3)C(=O)C(C)(C)[C@@H]2CC[C@@]1(C)O | 72.4 |
| CC(C)=CCC/C(C)=C/CC/C(C)=C/CC[C@@H]1[C@@]2(C)C/C(=C\c3ccc(OCc4cn(-c5cccc([N+](=O)[O-])c5)nn4)cc3)C(=O)C(C)(C)[C@@H]2CC[C@@]1(C)O | 79.4 |
| COc1cccc(-n2cc(COc3ccc(/C=C4\C[C@]5(C)[C@@H](CC/C=C(\C)CC/C=C(\C)CCC=C(C)C)[C@](C)(O)CC[C@H]5C(C)(C)C4=O)cc3)nn2)c1 | 16.6 |

system: not listed separately; assay: Cytotoxicity against human DU145 cells assessed as cell viability after 48 hrs by MTT assay; assay type: functional, cell-based; conditions: DU-145, 48 h

| SMILES | IC50 [µM] |
| --- | --- |
| CC(C)=CCC/C(C)=C/CC/C(C)=C/CC[C@@H]1[C@@]2(C)CC/C(=N\OCc3cn(-c4ccc(F)cc4)nn3)C(C)(C)[C@@H]2CC[C@@]1(C)O | 21.6 |
| CC(C)=CCC/C(C)=C/CC/C(C)=C/CC[C@@H]1[C@@]2(C)C/C(=C\c3ccc(OCc4cn(-c5ccc(F)c(Cl)c5)nn4)cc3)C(=O)C(C)(C)[C@@H]2CC[C@@]1(C)O | 28.4 |
| CC(C)=CCC/C(C)=C/CC/C(C)=C/CC[C@@H]1[C@@]2(C)CC/C(=N\OCc3cn(-c4cccc(C(F)(F)F)c4)nn3)C(C)(C)[C@@H]2CC[C@@]1(C)O | 11.8 |
| CC(C)=CCC/C(C)=C/CC/C(C)=C/CC[C@@H]1[C@@]2(C)C/C(=C\c3ccc(OCc4cn(-c5cccc(O)c5)nn4)cc3)C(=O)C(C)(C)[C@@H]2CC[C@@]1(C)O | 40.6 |
| CC(C)=CCC/C(C)=C/CC/C(C)=C/CC[C@@H]1[C@@]2(C)C/C(=C\c3ccc(OCc4cn(-c5ccc(Cl)cc5)nn4)cc3)C(=O)C(C)(C)[C@@H]2CC[C@@]1(C)O | 79.4 |
| CC(C)=CCC/C(C)=C/CC/C(C)=C/CC[C@@H]1[C@@]2(C)C/C(=C\c3ccc(OCc4cn(-c5cccc([N+](=O)[O-])c5)nn4)cc3)C(=O)C(C)(C)[C@@H]2CC[C@@]1(C)O | 46.4 |
| COc1cccc(-n2cc(COc3ccc(/C=C4\C[C@]5(C)[C@@H](CC/C=C(\C)CC/C=C(\C)CCC=C(C)C)[C@](C)(O)CC[C@H]5C(C)(C)C4=O)cc3)nn2)c1 | 14.5 |

system: HepG2; assay: Cytotoxicity against human HepG2 cells assessed as cell viability after 48 hrs by MTT assay; assay type: functional, cell-based; conditions: HepG2, 48 h

| SMILES | IC50 [µM] |
| --- | --- |
| CC(C)=CCC/C(C)=C/CC/C(C)=C/CC[C@@H]1[C@@]2(C)CC/C(=N\OCc3cn(-c4ccc(F)cc4)nn3)C(C)(C)[C@@H]2CC[C@@]1(C)O | 63.1 |
| CC(C)=CCC/C(C)=C/CC/C(C)=C/CC[C@@H]1[C@@]2(C)C/C(=C\c3ccc(OCc4cn(-c5ccc(F)c(Cl)c5)nn4)cc3)C(=O)C(C)(C)[C@@H]2CC[C@@]1(C)O | 40.2 |
| CC(C)=CCC/C(C)=C/CC/C(C)=C/CC[C@@H]1[C@@]2(C)CC/C(=N\OCc3cn(-c4cccc(C(F)(F)F)c4)nn3)C(C)(C)[C@@H]2CC[C@@]1(C)O | 22.7 |
| CC(C)=CCC/C(C)=C/CC/C(C)=C/CC[C@@H]1[C@@]2(C)C/C(=C\c3ccc(OCc4cn(-c5cccc(O)c5)nn4)cc3)C(=O)C(C)(C)[C@@H]2CC[C@@]1(C)O | 26.9 |
| CC(C)=CCC/C(C)=C/CC/C(C)=C/CC[C@@H]1[C@@]2(C)C/C(=C\c3ccc(OCc4cn(-c5ccc(Cl)cc5)nn4)cc3)C(=O)C(C)(C)[C@@H]2CC[C@@]1(C)O | 123 |
| CC(C)=CCC/C(C)=C/CC/C(C)=C/CC[C@@H]1[C@@]2(C)C/C(=C\c3ccc(OCc4cn(-c5cccc([N+](=O)[O-])c5)nn4)cc3)C(=O)C(C)(C)[C@@H]2CC[C@@]1(C)O | 117 |
| COc1cccc(-n2cc(COc3ccc(/C=C4\C[C@]5(C)[C@@H](CC/C=C(\C)CC/C=C(\C)CCC=C(C)C)[C@](C)(O)CC[C@H]5C(C)(C)C4=O)cc3)nn2)c1 | 50.1 |

system: A549; assay: Cytotoxicity against human A549 cells assessed as cell viability after 48 hrs by MTT assay; assay type: functional, cell-based; conditions: A549, 48 h

| SMILES | IC50 [µM] |
| --- | --- |
| CC(C)=CCC/C(C)=C/CC/C(C)=C/CC[C@@H]1[C@@]2(C)CC/C(=N\OCc3cn(-c4ccc(F)cc4)nn3)C(C)(C)[C@@H]2CC[C@@]1(C)O | 18 |
| CC(C)=CCC/C(C)=C/CC/C(C)=C/CC[C@@H]1[C@@]2(C)C/C(=C\c3ccc(OCc4cn(-c5ccc(F)c(Cl)c5)nn4)cc3)C(=O)C(C)(C)[C@@H]2CC[C@@]1(C)O | 46.6 |
| CC(C)=CCC/C(C)=C/CC/C(C)=C/CC[C@@H]1[C@@]2(C)CC/C(=N\OCc3cn(-c4cccc(C(F)(F)F)c4)nn3)C(C)(C)[C@@H]2CC[C@@]1(C)O | 12.9 |
| CC(C)=CCC/C(C)=C/CC/C(C)=C/CC[C@@H]1[C@@]2(C)C/C(=C\c3ccc(OCc4cn(-c5cccc(O)c5)nn4)cc3)C(=O)C(C)(C)[C@@H]2CC[C@@]1(C)O | 110 |
| CC(C)=CCC/C(C)=C/CC/C(C)=C/CC[C@@H]1[C@@]2(C)C/C(=C\c3ccc(OCc4cn(-c5ccc(Cl)cc5)nn4)cc3)C(=O)C(C)(C)[C@@H]2CC[C@@]1(C)O | 83.2 |
| CC(C)=CCC/C(C)=C/CC/C(C)=C/CC[C@@H]1[C@@]2(C)C/C(=C\c3ccc(OCc4cn(-c5cccc([N+](=O)[O-])c5)nn4)cc3)C(=O)C(C)(C)[C@@H]2CC[C@@]1(C)O | 126 |
| COc1cccc(-n2cc(COc3ccc(/C=C4\C[C@]5(C)[C@@H](CC/C=C(\C)CC/C=C(\C)CCC=C(C)C)[C@](C)(O)CC[C@H]5C(C)(C)C4=O)cc3)nn2)c1 | 45.7 |
